Experimental data published in patent US7943770B2, “Fused quinoline derivative and use thereof” (Takeda Pharmaceutical Company Limited, priority 2004, dated 2011).

The compounds below were run against T1, hNK2 receptor (Homo sapiens, UniProt P21452) (assay: Radio-ligand ([125I]-NKA) receptor binding inhibitory activity using membrane fraction of hNK2 receptor-expressing CHO cell). Conditions: membrane fraction of hNK2 receptor-expressing CHO cells, 25° C., 30 min.
T1 construct: host or cells: CHO cells
T1 sequence (P21452 1-398): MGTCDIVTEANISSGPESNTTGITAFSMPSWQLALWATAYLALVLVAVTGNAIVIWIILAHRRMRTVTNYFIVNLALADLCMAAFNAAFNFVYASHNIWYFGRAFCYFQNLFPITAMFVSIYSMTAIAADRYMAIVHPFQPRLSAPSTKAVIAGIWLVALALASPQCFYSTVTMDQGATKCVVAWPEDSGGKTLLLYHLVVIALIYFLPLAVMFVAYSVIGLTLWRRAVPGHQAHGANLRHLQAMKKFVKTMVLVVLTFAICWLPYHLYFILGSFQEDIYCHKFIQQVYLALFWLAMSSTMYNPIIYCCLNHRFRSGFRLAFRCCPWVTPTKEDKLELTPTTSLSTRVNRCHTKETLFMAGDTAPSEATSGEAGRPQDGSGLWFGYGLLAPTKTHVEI
Summary of the method: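 Inhibition of [125I]-NKA binding ([…] solution added) measured after 30 min at 25 °C using hNK2-CHO membrane fraction (20 μg/mL suspension) in pH 7.4 Tris buffer containing MnCl2, BSA and protease inhibitors. Filter-bound counts read; activity calculated as fraction of specific binding, non-specific defined with unlabeled NKA.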

SMILES	IC50 [nM]
CC(=O)N1CCC(NC(=O)N[C@@H]2CCCC[C@@H]2C(=O)N2CC[C@@H]3[C@H](c4ccccc4)Nc4ccccc4[C@@H]32)CC1 [Example 175, N-(1-Acetylpiperidin-4-yl)-N′-((1R,2S)-2-{[(3aR,4R,9bR)-4-phenyl-2,3,3a,4,5,9b-hexahydro-1H-pyrrolo[3,2-c]quinolin-1-yl]carbonyl}cyclohexyl)urea]	< 10
O=C(N[C@@H]1C2CCC(CC2)[C@@H]1C(=O)N1CC[C@@H]2[C@H](c3ccccc3)Nc3ccccc3[C@@H]21)c1ccccc1 [Example 178, N-((2R,3S)-3-{[(3aR,4R,9bR)-4-Phenyl-2,3,3a,4,5,9b-hexahydro-1H-pyrrolo[3,2-c]quinolin-1-yl]carbonyl}bicyclo[2.2.2]oct-2-yl)benzamide]	< 10
CCNC(=O)N[C@@H]1CCCC[C@@H]1C(=O)N1CC[C@@H]2[C@H](C3CC3)Nc3ccccc3[C@@H]21 [Example 185, N-((1R,2S)-2-{[(3aR,4S,9bR)-4-Cyclopropyl-2,3,3a,4,5,9b-hexahydro-1H-pyrrolo[3,2-c]quinolin-1-yl]carbonyl}cyclohexyl)-N′-ethylurea]	< 10
Cc1cc(C(=O)N[C@@H]2CCCC[C@@H]2C(=O)N2CC[C@@H]3[C@H](c4ccsc4)Nc4ccccc4[C@@H]32)ccc1C(N)=O [Example 191, 2-Methyl-N^4-((1R,2S)-2-{[(3aR,4R,9bR)-4-(3-thienyl)-2,3,3a,4,5,9b-hexahydro-1H-pyrrolo[3,2-c]quinolin-1-yl]carbonyl}cyclohexyl)terephthalamide]	< 1
Cc1nc2cc(C(=O)N[C@@H]3CCCC[C@@H]3C(=O)N3CC[C@@H]4[C@H](c5ccsc5)Nc5ccccc5[C@@H]43)ccc2[nH]1 [Example 192, 2-Methyl-N-((1R,2S)-2-{[(3aR,4R,9bR)-4-(3-thienyl)-2,3,3a,4,5,9b-hexahydro-1H-pyrrolo[3,2-c]quinolin-1-yl]carbonyl}cyclohexyl)-1H-benzimidazole-5-carboxamide]	< 1
C[C@]12CCN(C(=O)[C@H]3CCCC[C@H]3NC(=O)c3ccccc3)[C@H]1c1ccccc1N[C@H]2c1ccsc1 [Example 193, N-((1R,2S)-2-{[(3aR,4R,9bR)-3a-Methyl-4-(3-thienyl)-2,3,3a,4,5,9b-hexahydro-1H-pyrrolo[3,2-c]quinolin-1-yl]carbonyl}cyclohexyl)benzamide]	< 1
CCC[C@@H]1Nc2ccccc2[C@H]2[C@@H]1CCN2C(=O)[C@H]1CCCC[C@H]1NC(=O)c1ccc(OC)cc1 [Example 194, 4-Methoxy-N-((1R,2S)-2-{[(3aR,4S,9bR)-4-propyl-2,3,3a,4,5,9b-hexahydro-1H-pyrrolo[3,2-c]quinolin-1-yl]carbonyl}cyclohexyl)benzamide]	< 1
CCC[C@@H]1Nc2ccccc2[C@H]2[C@@H]1CCN2C(=O)[C@H]1CCCC[C@H]1NC(=O)Nc1ccccc1 [Example 195, N-Phenyl-N′-((1R,2S)-2-{[(3aR,4S,9bR)-4-propyl-2,3,3a,4,5,9b-hexahydro-1H-pyrrolo[3,2-c]quinolin-1-yl]carbonyl}cyclohexyl)urea]	< 1
CCC[C@@H]1Nc2ccccc2[C@H]2[C@@H]1CCN2C(=O)[C@H]1CCCC[C@H]1NC(=O)Nc1ccc(OC)cc1 [Example 196, N-(4-Methoxyphenyl)-N′-((1R,2S)-2-{[(3aR,4S,9bR)-4-propyl-2,3,3a,4,5,9b-hexahydro-1H-pyrrolo[3,2-c]quinolin-1-yl]carbonyl}cyclohexyl)urea]	< 1
CCC[C@@H]1Nc2ccccc2[C@H]2[C@@H]1CCN2C(=O)[C@H]1CCCC[C@H]1NC(=O)Nc1ccc(F)cc1 [Example 197, N-(4-Fluorophenyl)-N′-((1R,2S)-2-{[(3aR,4S,9bR)-4-propyl-2,3,3a,4,5,9b-hexahydro-1H-pyrrolo[3,2-c]quinolin-1-yl]carbonyl}cyclohexyl)urea]	< 1
CCC[C@@H]1Nc2ccccc2[C@H]2[C@@H]1CCN2C(=O)[C@H]1CCCC[C@H]1NC(=O)NCC [Example 198, N-Ethyl-N′-((1R,2S)-2-{[(3aR,4S,9bR)-4-propyl-2,3,3a,4,5,9b-hexahydro-1H-pyrrolo[3,2-c]quinolin-1-yl]carbonyl}cyclohexyl)urea]	< 10
CCCCNC(=O)N[C@@H]1CCCC[C@@H]1C(=O)N1CC[C@@H]2[C@H](CCC)Nc3ccccc3[C@@H]21 [Example 199, N-Butyl-N′-((1R,2S)-2-{[(3aR,4S,9bR)-4-propyl-2,3,3a,4,5,9b-hexahydro-1H-pyrrolo[3,2-c]quinolin-1-yl]carbonyl}cyclohexyl)urea]	< 10
CCC[C@@H]1Nc2ccccc2[C@H]2[C@@H]1CCN2C(=O)[C@H]1CCCC[C@H]1NC(=O)Nc1ccc2c(c1)OCO2 [Example 200, N-1,3-Benzodioxol-5-yl-N′-((1R,2S)-2-{[(3aR,4S,9bR)-4-propyl-2,3,3a,4,5,9b-hexahydro-1H-pyrrolo[3,2-c]quinolin-1-yl]carbonyl}cyclohexyl)urea]	< 1
CCC[C@@H]1Nc2ccccc2[C@H]2[C@@H]1CCN2C(=O)[C@H]1CCCC[C@H]1NC(=O)c1ccc2[nH]c(C)nc2c1 [Example 201, 2-methyl-N-((1R,2S)-2-{[(3aR,4S,9bR)-4-propyl-2,3,3a,4,5,9b-hexahydro-1H-pyrrolo[3,2-c]quinolin-1-yl]carbonyl}cyclohexyl)-1H-benzimidazole-5-carboxamide]	< 1
CCC[C@@H]1Nc2ccccc2[C@H]2[C@@H]1CCN2C(=O)[C@H]1CCCC[C@H]1NC(=O)c1ccc(C#N)cc1 [Example 202, 4-Cyano-N-((1R,2S)-2-{[(3aR,4S,9bR)-4-propyl-2,3,3a,4,5,9b-hexahydro-1H-pyrrolo[3,2-c]quinolin-1-yl]carbonyl}cyclohexyl)benzamide]	< 1

Further lines, results first:

IC50 [nM]	SMILES
< 1	COc1ccc(C(=O)N[C@@H]2CCCC[C@@H]2C(=O)N2CC[C@@H]3[C@H](C4CC4)Nc4ccccc4[C@@H]32)cc1 [Example 180, N-((1R,2S)-2-{[(3aR,4S,9bR)-4-Cyclopropyl-2,3,3a,4,5,9b-hexahydro-1H-pyrrolo[3,2-c]quinolin-1-yl]carbonyl}cyclohexyl)-4-methoxybenzamide]
< 1	O=C(CCc1ccccc1)N[C@@H]1CCCC[C@@H]1C(=O)N1CC[C@@H]2[C@H](C3CC3)Nc3ccccc3[C@@H]21 [Example 181, N-((1R,2S)-2-{[(3aR,4S,9bR)-4-Cyclopropyl-2,3,3a,4,5,9b-hexahydro-1H-pyrrolo[3,2-c]quinolin-1-yl]carbonyl}cyclohexyl)-3-phenylpropanamide]
< 1	O=C(N[C@@H]1CCCC[C@@H]1C(=O)N1CC[C@@H]2[C@H](C3CC3)Nc3ccccc3[C@@H]21)c1ccc(F)cc1 [Example 182, N-((1R,2S)-2-{[(3aR,4S,9bR)-4-Cyclopropyl-2,3,3a,4,5,9b-hexahydro-1H-pyrrolo[3,2-c]quinolin-1-yl]carbonyl}cyclohexyl)-4-fluorobenzamide]
< 1	O=C(Nc1ccccc1)N[C@@H]1CCCC[C@@H]1C(=O)N1CC[C@@H]2[C@H](C3CC3)Nc3ccccc3[C@@H]21 [Example 183, N-((1R,2S)-2-{[(3aR,4S,9bR)-4-Cyclopropyl-2,3,3a,4,5,9b-hexahydro-1H-pyrrolo[3,2-c]quinolin-1-yl]carbonyl}cyclohexyl)-N′-phenylurea]
< 1	COc1ccc(NC(=O)N[C@@H]2CCCC[C@@H]2C(=O)N2CC[C@@H]3[C@H](C4CC4)Nc4ccccc4[C@@H]32)cc1 [Example 184, N-((1R,2S)-2-{[(3aR,4S,9bR)-4-Cyclopropyl-2,3,3a,4,5,9b-hexahydro-1H-pyrrolo[3,2-c]quinolin-1-yl]carbonyl}cyclohexyl)-N′-(4-methoxyphenyl)urea]
< 1	O=C(Nc1ccccc1)N[C@@H]1CCCC[C@@H]1C(=O)N1CC[C@@H]2[C@H](c3ccsc3)Nc3ccccc3[C@@H]21 [Example 186, N-Phenyl-N′-((1R,2S)-2-{[(3aR,4R,9bR)-4-(3-thienyl)-2,3,3a,4,5,9b-hexahydro-1H-pyrrolo[3,2-c]quinolin-1-yl]carbonyl}cyclohexyl)urea]
< 1	CCNC(=O)N[C@@H]1CCCC[C@@H]1C(=O)N1CC[C@@H]2[C@H](c3ccsc3)Nc3ccccc3[C@@H]21 [Example 187, N-Ethyl-N′-((1R,2S)-2-{[(3aR,4R,9bR)-4-(3-thienyl)-2,3,3a,4,5,9b-hexahydro-1H-pyrrolo[3,2-c]quinolin-1-yl]carbonyl}cyclohexyl)urea]
< 1	CCCCNC(=O)N[C@@H]1CCCC[C@@H]1C(=O)N1CC[C@@H]2[C@H](c3ccsc3)Nc3ccccc3[C@@H]21 [Example 188, N-Butyl-N′-((1R,2S)-2-{[(3aR,4R,9bR)-4-(3-thienyl)-2,3,3a,4,5,9b-hexahydro-1H-pyrrolo[3,2-c]quinolin-1-yl]carbonyl}cyclohexyl)urea]
< 1	O=C(N[C@@H]1CCCC[C@@H]1C(=O)N1CC[C@@H]2[C@H](c3ccsc3)Nc3ccccc3[C@@H]21)c1ccc2[nH]nnc2c1 [Example 189, N-((1R,2S)-2-{[(3aR,4R,9bR)-4-(3-Thienyl)-2,3,3a,4,5,9b-hexahydro-1H-pyrrolo[3,2-c]quinolin-1-yl]carbonyl}cyclohexyl)-1H-1,2,3-benzotriazole-5-carboxamide]
< 1	NC(=O)c1ccc(C(=O)N[C@@H]2CCCC[C@@H]2C(=O)N2CC[C@@H]3[C@H](c4ccsc4)Nc4ccccc4[C@@H]32)cc1 [Example 190, N-((1R,2S)-2-{[(3aR,4R,9bR)-4-(3-Thienyl)-2,3,3a,4,5,9b-hexahydro-1H-pyrrolo[3,2-c]quinolin-1-yl]carbonyl}cyclohexyl)terephthalamide]
